Source: US11845727B2, “Aldehyde and ketone derivatives of psilocybin and methods of using” (Enveric B[…] Inc., priority 2020, dated 2023)

How the values were obtained:
5-HT2A receptor = target: T1, 5-HT2A receptor (Homo sapiens, UniProt P28223); assay: [3H]ketanserin competition binding assay (SPA) at the 5-HT2A receptor; conditions: fixed (1 nM) [3H]ketanserin, membranes containing 5-HT2A
T1 construct: purchased PerkinElmer ES-313-M400UA
Text: Evaluation of drug binding is an essential step to characterization of all drug-target interactions (Fang 2012, Exp Opin Drug Discov 7:969). The binding affinity of a drug to a target is traditionally viewed as an acceptable surrogate of its in vivo efficacy (Núñez et al., 2012, Drug Disc Today 17: 10). Competition assays, also called displacement or modulation binding assays, are a common approach to measure activity of a ligand at a target receptor (Flanagan 2016, Methods Cell Biol 132: 191). In these assays, standard radioligands acting either as agonists or antagonists are ascribed to specific receptors. […] After incubation, the samples were read on a MicroBeta 2 Microplate Counter (Perkin Elmer). […] Equilibrium binding constants for ketanserin (Kd) were determined from saturation binding curves using the ‘one-site saturation binding analysis’ method of GraphPad PRISM software (Version 9.2.0). […] Ki values were calculated from the competition displacement data using the competitive binding analysis from GraphPad PRISM software. […] Specific binding in counts per minute (cpm) was calculated by subtracting non-specific binding from total binding. Specific binding (pmol/mg) was calculated from pmol of [^3H]ketanserin bound per mg of protein in the assay. The Kd was calculated by fitting the data with the one-site binding model of PRISM software (version 9.2.0).

5-HT1A receptor = target: T2, 5-HT1A receptor (Homo sapiens, UniProt P08908); assay: cAMP-Glo assay with fixed forskolin in +5-HT1A cells (CHO-K1/5-HT1A/Gα15); type: cell-based; conditions: fixed (4 μM) forskolin; for luminescence as dosages of ligand decrease: +5HT1A cell culture, reduced luminescence = increased cAMP; for 5-HT1A receptor modulation (conclusion from cAMP/luminescence trend) / % cAMP levels as dosages of compound decrease: +5HT1A cell cultures
T2 construct: host or cells: CHO-K1 (co-expressing Gα15)
T2 sequence (P08908 1-422): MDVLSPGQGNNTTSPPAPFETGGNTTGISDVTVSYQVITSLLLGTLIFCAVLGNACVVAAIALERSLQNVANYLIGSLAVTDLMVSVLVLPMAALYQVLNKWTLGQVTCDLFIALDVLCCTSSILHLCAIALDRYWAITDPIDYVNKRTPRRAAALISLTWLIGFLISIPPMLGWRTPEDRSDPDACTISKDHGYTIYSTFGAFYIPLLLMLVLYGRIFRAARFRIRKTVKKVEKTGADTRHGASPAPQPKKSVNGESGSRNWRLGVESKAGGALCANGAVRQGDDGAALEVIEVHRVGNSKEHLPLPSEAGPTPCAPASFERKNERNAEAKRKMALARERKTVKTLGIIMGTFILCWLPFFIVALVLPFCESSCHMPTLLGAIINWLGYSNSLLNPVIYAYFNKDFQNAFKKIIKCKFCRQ
Text: (§1) CHO-K1/Gα15 (GenScript, M00257) (−5-HT1A) and CHO-K1/5-HT1A/Gα15 (GenScript, M00330) (+5-HT1A) cells lines were used. Briefly, CHO-K1/Gα15 is a control cell line that constitutively expresses Gα15 which is a promiscuous Gq protein. This control cell line lacks any transgene encoding 5-HT1A receptors, but still responds to forskolin; thus, cAMP response to forskolin should be the same regardless of whether or not 5-HT1A agonists are present. Conversely, CHO-K1/5-HT1A/Gα15 cells stably express 5-HT1A receptor in the CHO-K1 host background. […] In +5-HT1A cells, Gα15 may be recruited in place of Gαi/o, which could theoretically dampen cAMP response (Rojas and Fiedler 2016, Front Cell Neurosci 10: 272). […] In contrast, tryptophan is not known to activate, or modulate in any way, 5-HT1A receptors, and was thus used as a negative control. Cells were maintained in complete growth media as recommended by supplier (GenScript) which is constituted as follows: Ham's F12 Nutrient mix (HAM's F12, GIBCO #11765-047) with 10% fetal bovine serum (FBS) (Thermo Scientific #12483020), 200 μg/ml zeocin (Thermo Scientific #R25005) and/or 100 μg/ml hygromycin (Thermo Scientific #10687010). The cells were cultured in a humidified incubator with 37° C. and 5% CO2. Cells maintenance was carried out as recommended by the cell supplier. Briefly, vials with cells were removed from the liquid nitrogen and thawed quickly in 37° C. water bath. Just before the cells were completely thawed the vial's outside was decontaminated by 70% ethanol spray. The cell suspension was then retrieved from the vial and added to warm (37° C.) complete growth media, and centrifuged at 1,000 rpm for 5 minutes. The supernatant was discarded, and the cell pellet was then resuspended in another 10 ml of complete growth media, and added to the 10 cm cell culture dish (Greiner Bio-One #664160). The media was changed every third day until the cells were about 90% confluent. The ˜90% confluent cells were then split 10:1 for maintenance or used for experiment.
As 5-HT1A activation inhibits cAMP formation, the ability of test molecules to modulate the 5-HT1A receptor response was measured via changes in the levels of cAMP produced due to application of 4 μM forskolin. The change in intracellular cAMP levels due to the treatment of novel molecules was measured using cAMP-Glo Assay kit (Promega # V1501). Briefly, +5-HT1A cells were seeded on 1-6 columns and base −5-HT1A cells were seeded on columns 7-12 of the white walled clear bottom 96-well plate (Corning, #3903). Both cells were seeded at the density of 30,000 cells/well in 100 μl complete growth media and cultured 24 hrs in humidified incubator at 37° C. and 5% CO2. On the experiment day, the media of cells was replaced with serum/antibiotic free culture media. Then the cells were treated for 20 minutes with test molecules dissolved in induction medium (serum/antibiotic free culture media containing 4 μM forskolin, 500 μM IBMX (isobutyl-1-methylxanthine, Sigma-Aldrich, Cat. #17018) and 100 μM (RO 20-1724, Sigma-Aldrich, Cat. #68279)). Forskolin induced cAMP formation whereas IBMX and RO 20-1724 inhibited the degradation of cAMP. PKA was added to the lysate, mixed, and subsequently the substrate of the PKA was added. PKA was activated by cAMP, and the amount of ATP consumed due to PKA phosphorylation directly corresponded to cAMP levels in the lysate. Reduced ATP caused reduced conversion of luciferin to oxyluciferin, conferring diminished luminescence as the result of 5-HT1A activation. Conversely, enhanced luminescence was expected in cases where 5-HT1A receptor modulation—imparted by a test molecule—caused downstream increases in ATP, thus imparting enhanced conversion of luciferin to oxyluciferin.

[1] = tested on: CHO-K1/Gα15 (−5-HT1A) cells; assay: cAMP-Glo assay with fixed forskolin in −5-HT1A control cells (CHO-K1/Gα15); type: cell-based; conditions: fixed (4 μM) forskolin
Text: as §1
As 5-HT1A activation inhibits cAMP formation, the ability of test molecules to modulate the 5-HT1A receptor response was measured via changes in the levels of cAMP produced due to application of 4 μM forskolin. The change in intracellular cAMP levels due to the treatment of novel molecules was measured using cAMP-Glo Assay kit (Promega # V1501). […] Reduced ATP caused reduced conversion of luciferin to oxyluciferin, conferring diminished luminescence as the result of 5-HT1A activation. Conversely, enhanced luminescence was expected in cases where 5-HT1A receptor modulation—imparted by a test molecule—caused downstream increases in ATP, thus imparting enhanced conversion of luciferin to oxyluciferin.

T1 sequence (P28223 whole entry): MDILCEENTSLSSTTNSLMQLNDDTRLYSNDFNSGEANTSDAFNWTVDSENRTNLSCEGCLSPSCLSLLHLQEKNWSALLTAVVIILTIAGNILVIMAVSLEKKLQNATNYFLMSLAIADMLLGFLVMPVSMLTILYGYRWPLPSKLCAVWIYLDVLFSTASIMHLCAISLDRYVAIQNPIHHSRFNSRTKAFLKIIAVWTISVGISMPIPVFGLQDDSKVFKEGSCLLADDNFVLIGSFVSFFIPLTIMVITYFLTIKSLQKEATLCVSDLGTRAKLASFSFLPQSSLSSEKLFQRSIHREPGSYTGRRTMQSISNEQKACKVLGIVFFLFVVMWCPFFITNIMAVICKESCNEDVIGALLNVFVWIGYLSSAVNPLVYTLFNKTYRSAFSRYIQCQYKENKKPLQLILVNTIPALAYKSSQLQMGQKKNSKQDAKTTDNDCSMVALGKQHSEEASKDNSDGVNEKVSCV

For N[C@@H](Cc1c[nH]c2ccccc12)C(=O)O [tryptophan], the “competition binding curve at the 5-HT2A receptor” value (5-HT2A receptor) was “no binding”, the “luminescence as dosages of ligand decrease” value (5-HT1A receptor) was “no trend in luminescence” and the “5-HT1A receptor modulation (conclusion from cAMP/luminescence trend)” value (5-HT1A receptor) was “lack of 5-HT1A modulation”.
CN(C)CCc1c[nH]c2ccccc12 [DMT] was tested, and the “luminescence as dosages of ligand decrease” value (5-HT1A receptor) was “reduced luminescence” and the “5-HT1A receptor modulation (conclusion from cAMP/luminescence trend)” value (5-HT1A receptor) was 5-HT1A activity.
In the case of CCN(CC)CCc1c[nH]c2c(C=O)ccc(O)c12 [compound (VIII), N,N-diethyl-7-formyl psilocybin derivative], the “5-HT1A receptor modulation (conclusion from cAMP/luminescence trend)” value (5-HT1A receptor) is reported as 5-HT1A modulation activity, the “% cAMP levels as dosages of compound decrease” value (5-HT1A receptor) is reported as “increased % cAMP levels” and the “trend of % cAMP levels with decreasing compound in −5HT1A cell cultures” value [1] is reported as “not observed”.
In the case of NCCc1c[nH]c2ccc(O)cc12 [serotonin], the “5-HT1A receptor modulation (conclusion from cAMP/luminescence trend)” value (5-HT1A receptor) is reported as 5-HT1A binding activity, the “% cAMP levels as dosages of compound decrease” value (5-HT1A receptor) is reported as “increased % cAMP levels” and the “trend of % cAMP levels with decreasing compound in −5HT1A cell cultures” value [1] is reported as “not observed”.
COc1ccc(C=O)c2[nH]cc(CCN)c12 [compound (X), 4-O-methyl-7-formyl psilocybin derivative] was tested, and the “5-HT1A receptor modulation (conclusion from cAMP/luminescence trend)” value (5-HT1A receptor) was “modulate 5-HT1A response”, the “% cAMP levels as dosages of compound decrease” value (5-HT1A receptor) was “decreased % cAMP levels” and the “trend of % cAMP levels with decreasing compound in −5HT1A cell cultures” value [1] was “not observed”.
With CN(C)CCc1c[nH]c2cccc(O)c12 [psilocin] the “competition binding curve at the 5-HT2A receptor” value (5-HT2A receptor) was “binding”.
With CCCCN(CCCC)CCc1c(C=O)[nH]c2cccc(OC)c12 [compound (XII)] the “5-HT1A receptor modulation (conclusion from cAMP/luminescence trend)” value (5-HT1A receptor) was 5-HT1A modulation activity, the “% cAMP levels as dosages of compound decrease” value (5-HT1A receptor) was “decreased % cAMP levels” and the “trend of % cAMP levels with decreasing compound in −5HT1A cell cultures” value [1] was “not observed”.
